According to patent publication US9744203B2, “Application of composition in preparing health care product or medicine for preventing and treating leukopenia caused by radiotherapy and chemotherapy” (JIANGZHONG PHARMACEUTICAL CO., LTD., priority 2012, dated 2017):
Several values for one entry are separate records, joined by “and”; a condition that tells them apart may be missing. Identical values can stand only once.

Assays:
Type in all cases: in vivo
[1] = test system: leucocyte reduction in mice induced by cytarabine; experiment: Peripheral leucocyte assay, leucocyte reduction in mice induced by cytarabine; conditions: cytarabine model; positive control batyl alcohol 100 mg/kg intragastric, 15 days
Protocol: [Worded in the source for another target; used here, by the source, with some conditions changed.] (§1) Mice were randomly divided into 6 groups with 10 animals per group, i.e., normal control group, model control group, positive control group, and groups on low, medium and high doses of Composition 1. The low-, medium- and high-dose groups were intragastrically given Composition 1 at a dose of 2.0 g crude drug/kg, 4.0 g crude drug/kg, and 12.0 g crude drug/kg, respectively; the positive control group was intragastrically given batyl alcohol (100 mg/kg) at a dose of 0.1 ml/10 g body weight; the normal control group and the model control group were intragastrically given an equivalent volume of distilled water; and the dosage regime lasted for 15 days with one dose per day. From day 9 of intragastrical administration, all mice in each group, except the normal control group, were given cyclophosphamide at a dose of 40 mg/kg each day via subcutaneous injection for 3 consecutive days. One hour after the intragastrical administration on day 15, blood and femurs were harvested for tests.
(§2) 40 μL blood was drawn from the tail vein of the mice and transferred into a EDTA-K2 anticoagulative tube, into which 160 μL dilution liquid was added, and then assayed in an automatic blood cell analyzer. […]

[2] = test system: leucocyte reduction in mice induced by cyclophosphamide; experiment: Bone marrow DNA content determination, mice injected with cyclophosphamide; conditions: cyclophosphamide model; absorbance at 268 nm, day 15; positive control batyl alcohol 100 mg/kg intragastric
Protocol: as §1
A 7 mm section was dissected from the middle of the right femur. The whole bone marrow was flushed into a centrifuge tube with a 10 mL solution of 0.005 mol/L CaCl2, placed in a refrigerator at 4° C. for 30 min, and then centrifuged at 2500 r/min for 15 min. […] The supernatant was removed and its absorbance at 268 nm was measured.

[3] = test system: leucocyte reduction in mice induced by X-ray radiation; experiment: Bone marrow nucleated cell count, mice after X-ray radiation; conditions: X-ray radiation model; one femur; positive control batyl alcohol 100 mg/kg intragastric
[4] = test system: leucocyte reduction in mice induced by cyclophosphamide; experiment: Bone marrow nucleated cell count, mice injected with cyclophosphamide; conditions: cyclophosphamide model; one femur, day 15; positive control batyl alcohol 100 mg/kg intragastric
Protocol: as §1
Mice were sacrificed by cervical dislocation. The left femur was removed and flushed with a 10 ml solution of 3% acetic acid to obtain the cells in the bone marrow. The number of cells in 4 large grids on a hemacytometer was counted, and the number was multiplied by 2.5×10^4 to obtain the BMC in one femur.

[5] = test system: leucocyte reduction in mice induced by cyclophosphamide; experiment: Peripheral leucocyte assay, leucocyte reduction in mice induced by cyclophosphamide; conditions: cyclophosphamide model; positive control batyl alcohol 100 mg/kg intragastric, 15 days
Protocol: as §1
40 μL blood was drawn from the tail vein of the mice and transferred into a EDTA-K2 anticoagulative tube, into which 160 μL dilution liquid was added, and then assayed in an automatic blood cell analyzer.
Mice were randomly divided into 6 groups with 10 animals per group, i.e., normal control group, model control group, positive control group, and groups on low, medium and high doses of Composition 2. […]

[6] = test system: leucocyte reduction in mice induced by X-ray radiation; experiment: Peripheral leucocyte assay, leucocyte reduction in mice induced by X-ray radiation; conditions: X-ray radiation model; positive control batyl alcohol 100 mg/kg intragastric
Protocol: [Worded in the source for another target; used here, by the source, with some conditions changed.] as §1, §2

[7] = test system: leucocyte reduction in mice induced by cytarabine; experiment: Bone marrow nucleated cell count, mice injected with cytarabine; conditions: cytarabine model; one femur, day 15; positive control batyl alcohol 100 mg/kg intragastric
Protocol: [Worded in the source for another target; used here, by the source, with some conditions changed.] as §1
Mice were sacrificed by cervical dislocation. The left femur was removed and flushed with a 10 ml solution of 3% acetic acid to obtain the cells in the bone marrow. The number of cells in 4 large grids on a hemacytometer was counted, and the number was multiplied by 2.5×10^4 to obtain the BMC in one femur. […]

CCCCCCCCCCCCCCCCCCOCC(O)CO (stereo not shown) [Positive control, batyl alcohol]
WBC after modeling [1]: 3.80 ± 1.03 ×10^9 and 4.67 ± 1.27 ×10^9 and 4.90 ± 1.43 ×10^9 and 4.16 ± 1.09 ×10^9 and 4.53 ± 1.28 ×10^9 and 6.62 ± 1.52 ×10^9
WBC after treatment [1]: 6.54 ± 1.93 ×10^9 and 6.85 ± 1.70 ×10^9 and 7.10 ± 1.88 ×10^9 and 7.26 ± 1.90 ×10^9 and 7.54 ± 1.62 ×10^9 and 8.52 ± 1.55 ×10^9
Bone marrow DNA [2]: 0.610 ± 0.138 and 0.629 ± 0.150 and 0.625 ± 0.162 and 0.730 ± 0.150 and 0.755 ± 0.128 and 0.958 ± 0.138
Bone marrow BCM [3]: 13.20 ± 2.02 ×10^6 and 12.43 ± 2.29 ×10^6 and 13.69 ± 2.65 ×10^6 and 14.57 ± 2.57 ×10^6 and 13.92 ± 2.57 ×10^6 and 14.78 ± 2.44 ×10^6
Bone marrow BCM [4]: 13.44 ± 2.36 ×10^6 and 11.87 ± 2.08 ×10^6 and 13.65 ± 2.42 ×10^6 and 14.73 ± 2.04 ×10^6 and 14.86 ± 2.28 ×10^6 and 15.72 ± 2.34 ×10^6
WBC after modeling [5]: 3.55 ± 1.21 ×10^9 and 4.64 ± 1.30 ×10^9 and 5.25 ± 1.30 ×10^9 and 6.13 ± 1.47 ×10^9 and 5.73 ± 1.60 ×10^9 and 6.25 ± 1.76 ×10^9
WBC after treatment [5]: 6.20 ± 1.82 ×10^9 and 7.34 ± 1.59 ×10^9 and 7.56 ± 1.80 ×10^9 and 8.23 ± 1.54 ×10^9 and 7.89 ± 1.60 ×10^9 and 8.96 ± 1.93 ×10^9
WBC on day 8 after treatment [6]: 3.66 ± 1.05 ×10^9 and 5.60 ± 1.28 ×10^9 and 5.87 ± 1.62 ×10^9 and 5.80 ± 1.44 ×10^9 and 5.32 ± 1.54 ×10^9 and 5.53 ± 1.28 ×10^9
WBC on day 15 after treatment [6]: 6.92 ± 1.98 ×10^9 and 7.04 ± 1.87 ×10^9 and 7.49 ± 1.52 ×10^9 and 7.88 ± 1.61 ×10^9 and 7.80 ± 1.43 ×10^9 and 8.03 ± 1.59 ×10^9
Bone marrow BCM [7]: 12.53 ± 2.24 ×10^6 and 13.95 ± 2.77 ×10^6 and 13.64 ± 2.19 ×10^6 and 14.32 ± 2.65 ×10^6 and 13.25 ± 2.31 ×10^6 and 13.58 ± 2.17 ×10^6
